Test results as given in patent US5997843A, “Radiometal complexes that localise in hypoxic tissue” (priority 1993, dated 1999).

Assays:
[1] = Biodistribution in rats; type: in vivo, male rats; conditions: i.v.
Protocol: Biodistribution in Rats--Methods
The quantitative biodistribution was studied in male rats at 2 minutes, 1 hour and 4 hours post-injection
Rats under light anaesthesia were injected intravenously with 0.1 ml of test agent. Three rats were sacrificed (anaesthesia followed by exsanguination) at 2, 60 and 240 minutes, post-injection. The percentage of the injected dose in the excreta and organs and tissues was determined by dissection and assay for radioactivity in an automatic gamma counter.

[2] = test system: isolated (Langendorff) rat hearts; assay: Isolated perfused heart (Langendorff), hypoxic vs oxic uptake/retention; conditions: for Hypoxic/Oxic Ratio (H/O): ^99m Tc complex (or ^123 I-IAZA), 20 min infusion, 15 min washout; for Normalised Hypoxic Retention: relative to ^3 H-misonidazole activity
Protocol: A 15-minute cold buffer washout period follows. y activity in the heart is monitored using a collimated NaI probe detector positioned over the heart.
Activity in hearts, relative to perfusate activity, is calculated for each nuclide and data evaluated for each compound for activity in hypoxic and oxic hearts (hypoxic:oxic ratio) and also relative to the 3 H-misonidazole activity (normalised retention) using Formula 1. [formula] Results

[3] = 2 min post-injection, ^99m Tc complex
[4] = 240 min post-injection (third printed value)
[5] = second of two values, 60 or 240 min not assignable

Compound | Bladder/Urine ([1]; 2 min post-injection) | Blood ([1]; 2 min post-injection) | Gut ([1]; 2 min post-injection) | Kidney ([1]; 2 min post-injection) | Liver ([1]; 2 min post-injection) | Muscle [1, 3] | Gut ([1]; 60 min post-injection) | Muscle ([1]; 60 min post-injection) | Muscle [1, 4] | Gut ([1]; 240 min post-injection) | Blood [1, 5] | Kidney [1, 5] | Liver [1, 5] | Hypoxic/Oxic Ratio (H/O) [2] | Normalised Hypoxic Retention [2]
CC(C)(C=NO)NCCCCNC(C)(C)C=NO [Compound VI, 3,8-diaza-2,2,9,9-tetramethyldecan-1,10-dial dioxime] | 0.6 percent injected dose | 13.5 percent injected dose | 8.6 percent injected dose | 12.5 percent injected dose | 12.2 percent injected dose | 24.8 percent injected dose | 16.3 percent injected dose | 13.4 percent injected dose | 10.0 percent injected dose | 21.2 percent injected dose | 5.3 percent injected dose | 10.4 percent injected dose | 13.7 percent injected dose | 3.2 | 0.67
CC(=NO)C(C)NCCCCNC(C)C(C)=NO (stereo not shown) [Compound XIII, 4,9-Diaza-3,10-dimethyldodecan-2,11-dione dioxime] | 1.1 percent injected dose | 9.8 percent injected dose | 11.4 percent injected dose | 8.8 percent injected dose | 18.4 percent injected dose | 25.7 percent injected dose | 23.0 percent injected dose | 10.1 percent injected dose | 7.1 percent injected dose | 25.6 percent injected dose | 5.0 percent injected dose | 8.8 percent injected dose | 20.4 percent injected dose | – | –
O=[N+]([O-])c1nccn1[C@H]1O[C@H](C[123I])[C@@H](O)[C@@H]1O [^123 I-IAZA, ^123 I-iodoazomycin arabinoside, reference compound] | – | – | – | – | – | – | – | – | – | – | – | – | – | 10 | 2.7

More lines, main results first:

Bladder/Urine ([1]; 2 min post-injection) | Blood ([1]; 2 min post-injection) | Gut ([1]; 2 min post-injection) | Kidney ([1]; 2 min post-injection) | Liver ([1]; 2 min post-injection) | Muscle [1, 3] | Gut ([1]; 60 min post-injection) | Muscle ([1]; 60 min post-injection) | Muscle [1, 4] | Gut ([1]; 240 min post-injection) | Blood [1, 5] | Kidney [1, 5] | Liver [1, 5] | Compound | Hypoxic/Oxic Ratio (H/O) [2] | Normalised Hypoxic Retention [2]
0.2 percent injected dose | 18.1 percent injected dose | 8.2 percent injected dose | 11.3 percent injected dose | 9.7 percent injected dose | 26.9 percent injected dose | 25.0 percent injected dose | 10.1 percent injected dose | 3.3 percent injected dose | 35.6 percent injected dose | 1.1 percent injected dose | 4.2 percent injected dose | 5.4 percent injected dose | CC(=NO)C(C)(C)NCCCCCNC(C)(C)C(C)=NO [Compound III, 4,10-diaza-3,3,11,11-tetramethyltridecan-2,12-dione dioxime] | – | –
0.8 percent injected dose | 10.1 percent injected dose | 13.8 percent injected dose | 7.7 percent injected dose | 12.9 percent injected dose | 32.1 percent injected dose | 31.6 percent injected dose | 8.3 percent injected dose | 3.0 percent injected dose | 37.7 percent injected dose | 2.0 percent injected dose | 2.2 percent injected dose | 11.2 percent injected dose | CCC(=NO)C(C)(C)NCCCCNC(C)(C)C(C)=NO [Compound IX, 4,9-diaza-3,3,10,10-tetramethyltridecan-2,11-dione dioxime] | 8.4 | 2.1
